Measured values taken from the NIST ThermoML archive (doi:10.1021/je060228n).

Tests used:
[1] = xn = mol fraction of the nth substance listed; settings: 101 kPa, Liquid
[2] = refractive index (Na D-line) (dimensionless); xn = mol fraction of the nth substance listed; settings: 298.15 K, 101 kPa, Liquid
[3] = for surface tension liquid-gas: Drop weight; for mass density / speed of sound / viscosity: 101.33 kPa, Liquid
[4] = refractive index (Na D-line) (dimensionless); settings: 101.33 kPa, Liquid

CCOS(=O)(=O)[O-].CCn1cc[n+](C)c1 [1-ethyl-3-methylimidazolium ethyl sulfate] + CCO
[1]
Settings | mass density, 298.15 K [kg/m3] | mass density, 313.15 K [kg/m3] | mass density, 328.15 K [kg/m3] | speed of sound, 298.15 K [m/s] | speed of sound, 313.15 K [m/s] | speed of sound, 328.15 K [m/s] | viscosity, 298.15 K [mPa·s] | viscosity, 313.15 K [mPa·s] | viscosity, 328.15 K [mPa·s]
x2 = 0 | 1237.63 | 1227.51 | 1217.47 | 1679 | 1641.6 | 1604.5 | 97.58 | 50.01 | 29.18
x2 = 0.0623 | 1228.9 | 1218.87 | 1208.77 | 1669.8 | 1633.6 | 1594.8 | 79.12 | 42.18 | 25.36
x2 = 0.23 | 1201.26 | 1191.17 | 1181.01 | 1626.6 | 1590.1 | 1551 | 44.93 | 26.19 | 16.84
x2 = 0.4113 | 1161.68 | 1151.32 | 1140.94 | 1564 | 1527.7 | 1488.2 | 22.96 | 14.72 | 10.14
x2 = 0.5393 | 1123.63 | 1113 | 1102.3 | 1506.5 | 1459.1 | 1431.1 | 13.58 | 8.577 | 6.204
x2 = 0.6788 | 1066.7 | 1055.7 | 1044.7 | 1428.8 | 1381 | 1350.7 | 7.224 | 5.208 | 3.934
x2 = 0.7662 | 1017.9 | 1006.6 | 995.2 | 1367.2 | 1318.9 | 1286.7 | 4.598 | 3.413 | 2.642
x2 = 0.8303 | 973 | 961.3 | 949.6 | 1315.6 | 1266.2 | 1232.2 | 3.178 | 2.398 | 1.874
x2 = 0.9554 | 848.6 | 836.2 | 823.5 | 1195.9 | 1143.3 | 1102.6 | 1.573 | 1.2 | 0.941
x2 = 0.964 | 837.4 | 824.7 | 812 | 1186.2 | 1132.7 | 1091.4 | 1.427 | 1.095 | 0.862
x2 = 0.9863 | 806.1 | 793.4 | 780.3 | 1160.7 | 1106.2 | 1063.1 | 1.271 | 0.971 | 0.759

[2]
Settings | refractive index
x2 = 0 | 1.4794
x2 = 0.0623 | 1.47717
x2 = 0.23 | 1.47031
x2 = 0.4113 | 1.46017
x2 = 0.5393 | 1.45018
x2 = 0.6788 | 1.43532
x2 = 0.7662 | 1.42247
x2 = 0.8303 | 1.41052
x2 = 0.9554 | 1.37687
x2 = 0.964 | 1.37373
x2 = 0.9863 | 1.36514

CCOS(=O)(=O)[O-].CCn1cc[n+](C)c1 [1-ethyl-3-methylimidazolium ethyl sulfate]
Settings | mass density, [3] [kg/m3] | refractive index, [4] | speed of sound, [3] [m/s] | surface tension liquid-gas, [3] [mN/m] | viscosity, [3] [mPa·s]
288.15 K | 1244.46 | 1.48197 | 1703.9 | 47.91 | –
293.15 K | 1241 | 1.48072 | 1691.4 | 47.39 | –
298.15 K | 1237.63 | 1.4794 | 1679 | 46.96 | 97.58
303.15 K | 1234.25 | 1.47803 | 1666.6 | 46.58 | 76.67
308.15 K | 1230.88 | 1.47669 | 1654 | 46.23 | 61.71
313.15 K | 1227.51 | 1.47535 | 1641.6 | 45.84 | 50.01
318.15 K | 1224.15 | 1.47397 | 1629.2 | – | 41.37
323.15 K | 1220.8 | 1.47259 | 1616.8 | – | 34.46
328.15 K | 1217.47 | 1.47124 | 1604.5 | – | 29.18
333.15 K | 1214.31 | 1.46989 | 1591.3 | – | 24.96
338.15 K | 1210.82 | 1.46851 | 1578.9 | – | 21.45
343.15 K | 1207.51 | 1.46718 | 1566.4 | – | 18.72

CCO [ethanol] + CCOS(=O)(=O)[O-].CCn1cc[n+](C)c1
[1], x1 = 1
Settings | mass density [kg/m3] | speed of sound [m/s] | viscosity [mPa·s]
298.15 K | 785.46 | 1146.3 | 1.082
313.15 K | 772 | 1092.8 | 0.827
328.15 K | 758.6 | 1043.2 | 0.641

Settings | refractive index
[2], x1 = 1 | 1.36023

O [water] + CCOS(=O)(=O)[O-].CCn1cc[n+](C)c1
[1], x1 = 1
Settings | mass density [kg/m3] | speed of sound [m/s] | viscosity [mPa·s]
298.15 K | – | – | 0.89
313.15 K | – | – | 0.653
328.15 K | 985.7 | 1545.4 | 0.504

Settings | refractive index
[2], x1 = 1 | 1.33251
